# Activity calls are given as the source filed them. The calls are words filed in the database; no cut-off is given here.
# Legend:
# [1] = biological target: T1, Nuclear receptor ROR-gamma (Homo sapiens) (UniProt P51449); experiment: Inverse agonist activity at N-terminal 6xHis-tagged human RORc ligand binding domain (241 to 486) expressed in bacterial expression system assessed as inhibition of SRC1 co-activator peptide recruitment after 3 hrs by TR-FRET analysis relative to apo-RORc ligand binding domain
# T1 sequence (whole entry): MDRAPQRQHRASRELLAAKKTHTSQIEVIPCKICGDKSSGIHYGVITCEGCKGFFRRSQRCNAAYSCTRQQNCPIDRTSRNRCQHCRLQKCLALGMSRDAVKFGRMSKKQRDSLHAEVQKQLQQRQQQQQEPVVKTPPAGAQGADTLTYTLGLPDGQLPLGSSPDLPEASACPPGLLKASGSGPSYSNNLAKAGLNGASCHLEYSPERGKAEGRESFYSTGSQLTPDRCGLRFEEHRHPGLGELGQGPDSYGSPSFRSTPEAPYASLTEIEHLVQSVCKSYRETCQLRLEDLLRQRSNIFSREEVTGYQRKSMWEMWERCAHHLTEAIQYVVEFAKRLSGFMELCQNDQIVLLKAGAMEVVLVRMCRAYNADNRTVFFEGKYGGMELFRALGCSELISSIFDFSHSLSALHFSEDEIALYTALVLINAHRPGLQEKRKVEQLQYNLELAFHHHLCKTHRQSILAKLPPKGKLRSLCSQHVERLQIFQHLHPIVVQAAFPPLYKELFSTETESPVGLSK
# [2] = Apparent permeability across basolateral to apical side in MDCK cells at 100 uM after 60 mins by HPLC analysis; assay type: ADME, cell-based, Canis lupus familiaris; conditions: dog
# [3] = biological target: T2, Oxysterols receptor LXR-alpha (Homo sapiens) (UniProt Q13133); experiment: Agonist activity at GAL4-fused human LXRalpha expressed in HEK293 cells assessed as activation of basal transcriptional activity up to 10 uM after 20 hrs by dual-glo luciferase reporter gene assay; assay type: cell-based
# T2 sequence (whole entry): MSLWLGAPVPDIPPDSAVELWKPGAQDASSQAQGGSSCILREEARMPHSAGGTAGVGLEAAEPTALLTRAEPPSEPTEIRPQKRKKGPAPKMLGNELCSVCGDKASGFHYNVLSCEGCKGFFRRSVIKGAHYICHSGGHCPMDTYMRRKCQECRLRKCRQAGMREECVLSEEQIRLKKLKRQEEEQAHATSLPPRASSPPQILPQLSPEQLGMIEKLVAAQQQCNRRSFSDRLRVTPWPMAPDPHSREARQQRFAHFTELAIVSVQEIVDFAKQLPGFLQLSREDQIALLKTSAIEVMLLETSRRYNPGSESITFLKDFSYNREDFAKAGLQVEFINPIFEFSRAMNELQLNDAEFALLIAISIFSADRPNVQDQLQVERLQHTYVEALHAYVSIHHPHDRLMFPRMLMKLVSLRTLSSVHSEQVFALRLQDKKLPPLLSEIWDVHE
# [4] = biological target: T3, Nuclear receptor ROR-beta (Homo sapiens, UniProt Q92753); experiment: Inverse agonist activity at GAL4-fused human RORb expressed in HEK293 cells assessed as suppression of basal transcriptional activity after 20 hrs by dual-glo luciferase reporter gene assay; assay type: cell-based
# T3 sequence (Q92753 whole entry): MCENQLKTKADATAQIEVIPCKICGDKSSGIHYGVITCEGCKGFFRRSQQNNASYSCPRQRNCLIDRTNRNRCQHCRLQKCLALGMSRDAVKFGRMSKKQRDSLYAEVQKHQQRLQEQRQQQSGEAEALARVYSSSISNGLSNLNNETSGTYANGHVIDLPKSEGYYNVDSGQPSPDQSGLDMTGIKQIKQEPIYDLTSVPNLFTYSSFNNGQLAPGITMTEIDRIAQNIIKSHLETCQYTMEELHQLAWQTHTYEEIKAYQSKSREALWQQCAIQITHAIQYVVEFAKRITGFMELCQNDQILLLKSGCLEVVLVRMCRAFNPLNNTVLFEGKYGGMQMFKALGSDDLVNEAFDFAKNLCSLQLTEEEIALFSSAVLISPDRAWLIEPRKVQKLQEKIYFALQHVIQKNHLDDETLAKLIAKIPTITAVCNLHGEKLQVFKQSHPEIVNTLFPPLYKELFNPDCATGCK
# [5] = Plasma protein binding in human at 5 uM after 4 hrs by equilibrium dialysis method; assay type: ADME, cell-free; conditions: read-out: PPB
# [6] = Apparent permeability across apical to basolateral side in MDCK cells at 100 uM after 60 mins by HPLC analysis; assay type: ADME, cell-based, Canis lupus familiaris; conditions: dog
# [7] = test system: PBMC; experiment: Inhibition of IFNgamma production in human PBMC after 48 hrs by Sandwich ELISA; assay type: functional, cell-based
# [8] = test system: PBMC; experiment: Cytotoxicity against human PBMC assessed as effect on cell physiology after 48 hrs by CellTiter-Glo assay; assay type: cell-based
# [9] = test system: PBMC; experiment: Inhibition of IL-17 production in human PBMC after 48 hrs by Sandwich ELISA; assay type: functional, cell-based; conditions: for EC50: Homo sapiens, PBMC, 48 h
# [10] = biological target: Nuclear receptor ROR-gamma; experiment: Inverse agonist activity at GAL4-fused human RORc expressed in HEK293 cells assessed as suppression of basal transcriptional activity after 20 hrs by dual-glo luciferase reporter gene assay
# [11] = test system: HEK293; experiment: Selectivity ratio of EC50 for GAL4-fused human RORa expressed in HEK293 cells to EC50 for GAL4-fused human RORc expressed in HEK293 cells; assay type: cell-based
# [12] = test system: HEK293; experiment: Selectivity ratio of EC50 for GAL4-fused human LXRbeta expressed in HEK293 cells to EC50 for GAL4-fused human RORc expressed in HEK293 cells; assay type: cell-based
# [13] = test system: HEK293; experiment: Selectivity ratio of EC50 for GAL4-fused human FXR expressed in HEK293 cells to EC50 for GAL4-fused human RORc expressed in HEK293 cells; assay type: cell-based
# [14] = biological target: T4, Nuclear receptor ROR-gamma (Homo sapiens, UniProt P51449); experiment: Inverse agonist activity at N-terminal 6xHis-tagged human RORc ligand binding domain (241 to 486) expressed in bacterial expression system assessed as inhibition of SRC1 co-activator peptide recruitment after 3 hrs by TR-FRET analysis; assay type: functional
# T4 sequence (P51449 whole entry): T1 sequence (whole entry)
# [15] = test system: HEK293; experiment: Selectivity ratio of EC50 for GAL4-fused human RORb expressed in HEK293 cells to EC50 for GAL4-fused human RORc expressed in HEK293 cells; assay type: cell-based
# [16] = test system: HEK293; experiment: Selectivity ratio of EC50 for GAL4-fused human LXRalpha expressed in HEK293 cells to EC50 for GAL4-fused human RORc expressed in HEK293 cells; assay type: cell-based
# [17] = test system: HEK293; experiment: Selectivity ratio of EC50 for GAL4-fused human PXR expressed in HEK293 cells to EC50 for GAL4-fused human RORc expressed in HEK293 cells; assay type: cell-based
# [18] = test system: MDCK; experiment: Efflux ratio of apparent permeability across apical to basolateral side over basolateral to apical side in MDCK cells at 100 uM after 60 mins by HPLC analysis; assay type: ADME, cell-based, Canis lupus familiaris; conditions: dog, 1 h
# [19] = biological target: Nuclear receptor ROR-alpha (→); experiment: Inverse agonist activity at GAL4-fused human RORa expressed in HEK293 cells assessed as suppression of basal transcriptional activity after 20 hrs by dual-glo luciferase reporter gene assay
Compound,Efficacy [1] [%],"Papp B→A at 1 h, 100 µM [2] [×10⁻⁶ cm/s]",Activity [3],EC50 [4] [µM],"fraction unbound at 4 h, 5 µM [5]","Papp A→B at 1 h, 100 µM [6] [×10⁻⁶ cm/s]",EC50 [7] [µM],EC50 [8] [µM],%max [9] [%],EC50 [9] [µM],EC50 [10] [µM],Ratio EC50 [11],Ratio EC50 [12],Ratio EC50 [13],EC50 [14] [µM],Ratio EC50 [15],Ratio EC50 [16],Ratio EC50 [17],Ratio [18],EC50 [19] [µM]
O=C(Nc1ccc2c(c1)N(S(=O)(=O)c1ccc(F)cc1)CCC2)c1ccccc1Cl,-89,15,inactive,4.1,< 0.01,12,,,,,,,,,,,,,,
O=C(Nc1ccc2c(c1)N(S(=O)(=O)c1ccc(F)cc1)CCC2)c1c(F)cccc1Cl,-89,12,inactive,3.4,< 0.01,12,> 20,> 20,63,2.1,,,,,,,,,,
O=C(Nc1ccc2c(c1)N(S(=O)(=O)c1ccc(F)cc1)CCC2)c1c(F)cccc1F,-99,14,inactive,5.4,< 0.01,22,> 20,> 20,78,1.4,,,,,,,,,,
O=C(Nc1ccc2c(c1)N(S(=O)(=O)c1ccc(F)cc1)CC2)c1c(F)cccc1F,-99,11,inactive,7.9,< 0.01,16,,,,,0.28,28,15,15,0.086,28,15,15,< 2,12
